Results published in PubChem BioAssay AID248 (DTP/NCI, 2004).
Where “and” joins values, the source holds several entries; their conditions need not be identical. Identical values can stand only once. Toxic doses and inconclusive results are not listed. No stated cut-off is given here; in the data, active means T/C of 150% or more; inactive means T/C below 125%.

Tested on: L1210 leukemia ip in BDF1 mice, survival T/C
Assay: NCI In Vivo Anticancer Drug Screen. Data for tumor model L1210 Leukemia (intraperitoneal) in B6D2F1 (BDF1) mice
Details: endpoint: mean survival time, higher = longer survival
How it was run: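 Mice bearing the transplanted tumor received compound or vehicle. Survival of the treated group was divided by that of the vehicle-treated control group to give the ratio.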

[1] = dose: 100.0 mg/kg/injection, schedule: Q01DX001 (ip), vehicle: saline
[2] = dose: 100.0 mg/kg/injection, schedule: Q04DX003 (ip), vehicle: saline
[3] = dose: 200.0 mg/kg/injection, schedule: Q01DX001 (ip), vehicle: saline
[4] = dose: 200.0 mg/kg/injection, schedule: Q04DX003 (ip), vehicle: saline
[5] = dose: 400.0 mg/kg/injection, schedule: Q01DX001 (ip), vehicle: saline
[6] = dose: 400.0 mg/kg/injection, schedule: Q04DX003 (ip), vehicle: saline
[7] = dose: 100.0 mg/kg/injection, schedule: Q01DX009 (ip), vehicle: saline
[8] = dose: 200.0 mg/kg/injection, schedule: Q01DX009 (ip), vehicle: saline
[9] = dose: 50.0 mg/kg/injection, schedule: Q01DX009 (ip), vehicle: Klucel (hydroxypropylcellulose) (HPC)
[10] = dose: 100.0 mg/kg/injection, schedule: Q01DX009 (ip), vehicle: Klucel (hydroxypropylcellulose) (HPC)
[11] = dose: 100.0 mg/kg/injection, schedule: Q04DX003 (ip), vehicle: Klucel (hydroxypropylcellulose) (HPC)
[12] = dose: 200.0 mg/kg/injection, schedule: Q01DX009 (ip), vehicle: Klucel (hydroxypropylcellulose) (HPC)
[13] = dose: 200.0 mg/kg/injection, schedule: Q04DX003 (ip), vehicle: Klucel (hydroxypropylcellulose) (HPC)
[14] = dose: 100.0 mg/kg/injection, schedule: Q04DX003 (ip), vehicle: saline with Tween-80
[15] = dose: 100.0 mg/kg/injection, schedule: Q04DX002 (ip), vehicle: saline with Tween-80
[16] = dose: 200.0 mg/kg/injection, schedule: Q04DX002 (ip), vehicle: saline with Tween-80
[17] = dose: 400.0 mg/kg/injection, schedule: Q04DX002 (ip), vehicle: saline with Tween-80
[18] = dose: 400.0 mg/kg/injection, schedule: Q04DX003 (ip), vehicle: Klucel (hydroxypropylcellulose) (HPC)

Measured: T/C

O=C(O)CNc1cc(S(=O)(=O)O)cc2cc(S(=O)(=O)O)c(N=Nc3ccc(S(=O)(=O)O)c4ccccc34)c(O)c12
inactive: [1] 98 % of control | [2] 106 % of control | [3] 95 % of control | [4] 90 % of control | [5] 98 % of control | [6] 95 % of control

C1CCC2=NCCCN2CC1
inactive: dose: 5.0 mg/kg/injection, schedule: Q01DX001 (ip), vehicle: saline 101 % of control | dose: 10.0 mg/kg/injection, schedule: Q01DX001 (ip), vehicle: saline 101 % of control | dose: 20.0 mg/kg/injection, schedule: Q01DX001 (ip), vehicle: saline 103 % of control | dose: 40.0 mg/kg/injection, schedule: Q01DX001 (ip), vehicle: saline 97 % of control

Cc1ncc(CCl)c(CCl)c1O
inactive: dose: 50.0 mg/kg/injection, schedule: Q01DX009 (ip), vehicle: saline 95 % of control | [7] 92 % of control | [2] 98 % of control | [8] 97 % of control | [4] 97 % of control

COc1ccc(OCCCCCCCCCCBr)cc1
inactive: dose: 100.0 mg/kg/injection, schedule: Q04DX002 (ip), vehicle: other 101 % of control | dose: 200.0 mg/kg/injection, schedule: Q04DX002 (ip), vehicle: other 96 % of control | dose: 400.0 mg/kg/injection, schedule: Q04DX002 (ip), vehicle: other 93 % of control

NC(=O)OCC(COC(N)=O)(c1ccccc1)c1ccccc1
inactive: dose: 45.0 mg/kg/injection, schedule: Q01DX001 (ip), vehicle: saline 101 % of control | dose: 67.0 mg/kg/injection, schedule: Q01DX001 (ip), vehicle: saline 95 % of control and 101 % of control | [1] 98 % of control | dose: 150.0 mg/kg/injection, schedule: Q01DX001 (ip), vehicle: saline 95 % of control and 104 % of control

Cn1cc[nH]c1=S
inactive: dose: 25.0 mg/kg/injection, schedule: Q04DX003 (ip), vehicle: saline 114 % of control | dose: 50.0 mg/kg/injection, schedule: Q04DX003 (ip), vehicle: saline 90 % of control | [1] 110 % of control | [2] 98 % of control | [3] 107 % of control | [5] 105 % of control

COc1ccc(SC2CCCCC2OS(C)(=O)=O)cc1 (stereo unspecified)
inactive: [9] 107 % of control | dose: 50.0 mg/kg/injection, schedule: Q04DX003 (ip), vehicle: Klucel (hydroxypropylcellulose) (HPC) 102 % of control | dose: 100.0 mg/kg/injection, schedule: Q01DX001 (ip), vehicle: Klucel (hydroxypropylcellulose) (HPC) 106 % of control | [10] 109 % of control | [11] 106 % of control | dose: 200.0 mg/kg/injection, schedule: Q01DX001 (ip), vehicle: Klucel (hydroxypropylcellulose) (HPC) 95 % of control | [12] 98 % of control | [13] 104 % of control

N#CCCN(C(=O)Nc1ccccc1)C1CCCCC1
inactive: dose: 100.0 mg/kg/injection, schedule: Q01DX Z (ip), vehicle: methylcellulose (MC) 101 % of control | dose: 200.0 mg/kg/injection, schedule: Q01DX Z (ip), vehicle: methylcellulose (MC) 89 % of control

CC1(C)CCC2(CC1)CC(=O)OC2=O
inactive: [14] 95 % of control | dose: 200.0 mg/kg/injection, schedule: Q04DX003 (ip), vehicle: saline with Tween-80 97 % of control | dose: 400.0 mg/kg/injection, schedule: Q04DX003 (ip), vehicle: saline with Tween-80 98 % of control

O=C1NC(c2cccs2)N2C(=O)NC(c3cccs3)N12 (stereo unspecified)
inactive: dose: 100.0 mg/kg/injection, schedule: Q04DX002 (ip), vehicle: gum acacia 105 % of control | dose: 200.0 mg/kg/injection, schedule: Q04DX002 (ip), vehicle: gum acacia 109 % of control | dose: 400.0 mg/kg/injection, schedule: Q04DX002 (ip), vehicle: gum acacia 112 % of control

CN1CCC(COC(=O)C(O)(c2ccccc2)c2ccccc2)C1 (stereo unspecified)
inactive: dose: 25.0 mg/kg/injection, schedule: Q04DX003 (ip), vehicle: saline with Tween-80 97 % of control | dose: 50.0 mg/kg/injection, schedule: Q04DX003 (ip), vehicle: saline with Tween-80 94 % of control | [14] 101 % of control and 87 % of control

CCCc1nc2ccccc2c(=O)n1/N=C/c1ccc(OC)cc1
inactive: dose: 100.0 mg/kg/injection, schedule: Q04DX002 (ip), vehicle: Klucel (hydroxypropylcellulose) (HPC) 96 % of control | dose: 200.0 mg/kg/injection, schedule: Q04DX002 (ip), vehicle: Klucel (hydroxypropylcellulose) (HPC) 99 % of control | dose: 400.0 mg/kg/injection, schedule: Q04DX002 (ip), vehicle: Klucel (hydroxypropylcellulose) (HPC) 101 % of control

CCNC(=S)OC1CCC2(C)C(=CCC3C2CCC2(C)C(C(C)CCC(CC)C(C)C)CCC32)C1 (stereo unspecified)
inactive: [15] 87 % of control | [16] 87 % of control | [17] 94 % of control

COc1ccc(C(=O)C(C)C(C)OC(=O)c2ccccc2C(=O)O)cc1 (stereo unspecified)
inactive: [1] 96 % of control | [3] 98 % of control | [5] 93 % of control

Cc1cc(C)c(O)c(Br)c1
inactive: [15] 103 % of control | [16] 96 % of control | [17] 107 % of control

Nc1ccc(S(N)(=O)=O)cc1
inactive: [11] 114 % of control | [13] 95 % of control | [18] 92 % of control

COC(=O)Nc1ccc2nc(NC(=O)OC)[nH]c2c1
inactive: dose: 20.0 mg/kg/injection, schedule: Q01DX009 (ip), vehicle: other 97 % of control | dose: 40.0 mg/kg/injection, schedule: Q01DX009 (ip), vehicle: other 101 % of control | dose: 80.0 mg/kg/injection, schedule: Q01DX009 (ip), vehicle: other 104 % of control

Cc1ccc2c(c1)CN(C13CC4CC(CC(C4)C1)C3)CO2
inactive: dose: 100.0 mg/kg/injection, schedule: Q04DX003 (ip), vehicle: saline sonified 91 % of control | dose: 200.0 mg/kg/injection, schedule: Q04DX003 (ip), vehicle: saline sonified 102 % of control | dose: 400.0 mg/kg/injection, schedule: Q04DX003 (ip), vehicle: saline sonified 93 % of control

O=N[C@H]1C2CC([C@@H]1Cl)[C@@H]1CC=C[C@H]21 (stereo partly specified)
inactive: dose: 50.0 mg/kg/injection, schedule: Q01DX001 (ip), vehicle: carboxymethylcellulose (CMC) 95 % of control | dose: 100.0 mg/kg/injection, schedule: Q01DX001 (ip), vehicle: carboxymethylcellulose (CMC) 101 % of control | dose: 200.0 mg/kg/injection, schedule: Q01DX001 (ip), vehicle: carboxymethylcellulose (CMC) 95 % of control

Cc1ccc(NC(=O)OCCOc2cc(C)c(Cl)c(C)c2)c([N+](=O)[O-])c1
inactive: [9] 95 % of control | [10] 95 % of control | [11] 90 % of control | [12] 91 % of control | [13] 97 % of control | [18] 92 % of control

CC(=O)OS(=O)(=O)c1ccc(C)cc1
inactive: [7] 98 % of control | [2] 94 % of control | [8] 90 % of control | [4] 92 % of control | [6] 89 % of control

CN(C(=O)COc1ccc([N+](=O)[O-])cc1Cl)c1ccc(S(=O)(=O)F)cc1
inactive: [2] 104 % of control | [4] 95 % of control | [6] 96 % of control

Cc1ccc(S(=O)(=O)OC2CCCC3CCCCC32)cc1 (stereo unspecified)
inactive: [1] 98 % of control | [3] 100 % of control | [5] 98 % of control

Cc1ccc(NC(=O)c2ccc(Cl)cc2)c(C)c1
inactive: [10] 94 % of control | [11] 106 % of control | [12] 100 % of control | [13] 96 % of control | [18] 98 % of control

CN=C(NC)N(C)/N=C/C(C)=N/N(C)C(=NC)NC
inactive: dose: 15.0 mg/kg/injection, schedule: Q01DX Z (ip), vehicle: methylcellulose (MC) 95 % of control | dose: 30.0 mg/kg/injection, schedule: Q01DX Z (ip), vehicle: methylcellulose (MC) 101 % of control | dose: 60.0 mg/kg/injection, schedule: Q01DX Z (ip), vehicle: methylcellulose (MC) 101 % of control | dose: 60.0 mg/kg/injection, schedule: Q01DX Z (oral), vehicle: methylcellulose (MC) 104 % of control | dose: 120.0 mg/kg/injection, schedule: Q01DX Z (oral), vehicle: methylcellulose (MC) 93 % of control | dose: 240.0 mg/kg/injection, schedule: Q01DX Z (oral), vehicle: methylcellulose (MC) 91 % of control | dose: 480.0 mg/kg/injection, schedule: Q01DX Z (oral), vehicle: methylcellulose (MC) 110 % of control | dose: 720.0 mg/kg/injection, schedule: Q01DX Z (oral), vehicle: methylcellulose (MC) 108 % of control
